Test results taken from patent publication US20250032493A1, “Methods for Treating Diseases Using MALT1 Inhibitors” (RARIFIED BIOSCIENCES, INC., priority 2021, published 2025).
Read-outs that look alike come from different tables or passages of the source.

Key:
[1] = target: T1, MALT1 (Homo sapiens, UniProt Q9UDY8); experiment: Example IC50 and IC90 values of MALT1 inhibitors (blood concentration targets); assay type: cell-based
T1 sequence (Q9UDY8 1-824): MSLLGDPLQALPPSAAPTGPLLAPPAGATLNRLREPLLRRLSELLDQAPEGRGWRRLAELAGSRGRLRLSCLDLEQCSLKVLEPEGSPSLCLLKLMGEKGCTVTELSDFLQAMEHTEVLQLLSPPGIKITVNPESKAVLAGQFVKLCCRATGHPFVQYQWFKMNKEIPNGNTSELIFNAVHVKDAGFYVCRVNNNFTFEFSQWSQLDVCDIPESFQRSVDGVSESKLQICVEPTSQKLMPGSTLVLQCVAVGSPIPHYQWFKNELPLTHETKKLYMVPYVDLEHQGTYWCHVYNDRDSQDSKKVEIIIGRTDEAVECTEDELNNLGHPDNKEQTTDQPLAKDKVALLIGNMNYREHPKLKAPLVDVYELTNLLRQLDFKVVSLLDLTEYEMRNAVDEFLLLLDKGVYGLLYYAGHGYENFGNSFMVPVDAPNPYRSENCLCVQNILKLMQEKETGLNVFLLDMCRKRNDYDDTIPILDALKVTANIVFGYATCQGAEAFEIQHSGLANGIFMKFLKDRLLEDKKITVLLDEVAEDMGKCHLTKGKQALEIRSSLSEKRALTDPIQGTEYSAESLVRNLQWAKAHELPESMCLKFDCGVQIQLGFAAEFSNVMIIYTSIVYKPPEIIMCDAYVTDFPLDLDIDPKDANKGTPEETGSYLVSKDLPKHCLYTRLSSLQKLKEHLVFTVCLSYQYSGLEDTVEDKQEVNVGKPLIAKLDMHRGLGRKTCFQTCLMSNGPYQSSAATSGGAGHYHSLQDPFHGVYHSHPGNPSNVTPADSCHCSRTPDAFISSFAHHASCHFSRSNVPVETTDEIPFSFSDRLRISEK
Text: In various embodiments, the plasma PK profile of the MALT1 inhibitor refers to a time over an IC50 blood concentration target following administration to the subject. As used herein, a “time over an IC50 blood concentration target” refers to a period of time following administration in which a concentration of the MALT1 inhibitor in the subject's blood is above the IC50 value.
In various embodiments, the plasma PK profile of the MALT1 inhibitor refers to a time over an IC90 blood concentration target following administration to the subject. As used herein, a “time over an IC90 blood concentration target” refers to a period of time following administration in which a concentration of the MALT1 inhibitor in the subject's blood is above the IC90 value.

[2] = tested on: splenic Tregs; experiment: Rat CIA model: splenic Treg levels; assay type: in vivo; settings: for reduction in the Treg levels: CIA rats, in comparison to vehicle
Experimental: (§1) For isolation of synovial fluid prior to study termination, animals were anesthetized and the skin on the hind limbs were separated to ensure exposure of knee joint. A small incision was made near the top of the knee joint and the articular cavity was rinsed with 60 μl phosphate-buffered saline (PBS) for 2 time and ˜50-60 μl synovial fluid was collected. The synovial fluid samples were spun down, and the supernatant stored at −80° C. prior to cytokine analysis. At study termination, plasma was prepared from whole blood and stored at −80° C. prior to cytokine analysis and measurement of total and anti-collagen IgG. Single cell suspensions were prepared from harvested spleens following standard methods and Treg frequencies measured by flow cytometry-based immunophenotyping of freshly isolated cells.
Harvested spleens were homogenized in cold PBS and cellular debris removed by passing through a […] cell strainer. The cell suspension was centrifuged at 300×g for 5 min at 4° C. and the pellet was treated with 1×RBC lysis buffer per manufacturer's protocol (Thermofisher). The washed cell pellet was resuspended for a final concentration of 5-10×10^6 cells/ml and 100 μl of cell suspension was processed for immunophenotyping. […] Cells were washed with cold FACS wash buffer (BD) and fixed with 1×FoxP3/Transcription Factor Fixation Buffer (Thermofisher) for overnight at 4° C. […] Cells were washed 2-3× with the permeabilization and wash buffer as mentioned earlier, and finally resuspended in FACS wash buffer. Samples were acquired on a BD LSRFortessa flow cytometer and data analyzed using the FlowJo software (BD).

[3] = tested on: rat collagen induced arthritis (CIA) model; experiment: Rat CIA model: plasma and synovial cytokines, anti-collagen and total IgG; assay type: in vivo
Experimental: as §1
All cytokine measurements were performed using commercially available kits and as per manufacturer's protocol. Supernatants from human whole blood and cellular assays were quantified using the human Proinflammatory Panel 1 (human) kit on a Sector Imager 6000 reader (Meso Scale Discovery, Rockville, MD). IL-17a was quantified using the V-Plex Human IL-17a kit on a Sector Imager 6000 reader (Meso Scale Discovery, Rockville, MD). Supernatants from rat whole blood assay were analyzed for IL-2 levels using the rat IL-2 Duoset ELISA kit (R&D). […]

[4] = tested on: Tregs; experiment: Mouse accelerated Lupus model: Treg levels; assay type: in vivo, mice; settings: 3 and 30 mg/kg daily
Experimental: In this example, REO-528 MALT1 inhibitor was administered to mice of an accelerated Lupus Nephritis model (IFN-alpha accelerated) to investigate the impact of the administration of the MALT1 inhibitor. Mice were divided into 6 groups: 1) Naïve, 2) vehicle (weeks 13-18), 3) REO538 (3 mg/kg) daily administration weeks 13-18, 4) REO-538 (30 mg/kg) daily administration weeks 13-18, 5) REO-538 (30 mg/kg) daily administration weeks 15-18, and 6) BID dexamethasone (Dex) at 1 mg/kg for weeks 15-18. Groups 2 through 6 were also administered AAV encoding mIFNα to accelerate the lupus nephritis disease.

[5] = tested on: rat collagen induced arthritis (CIA) model; experiment: Rat collagen-induced arthritis model: clinical score
Text: Adult female Lewis Rats (180-200 g body weight) were immunized subcutaneously with Type II bovine collagen/Incomplete Freund's Adjuvant emulsion on Day 0 and Day 7. On Day 14 rats were randomized based on clinical disease scores in different treatment groups. Rats received either once daily (q.d) dose of compounds via oral gavage or Vehicle (0.5% Carboxymethylcellulose-Na+0.5% Tween 80 in water, suspension) for 2 weeks. Naïve rats used as controls.

[6] = tested on: CD4+ Total T-cells; experiment: Total CD4+ T-cell cytokine release assay; assay type: cell-based, human; settings: CD4+ Total T-cells (a-CD3/-CD28)
Experimental: All cytokine measurements were performed using commercially available kits and as per manufacturer's protocol. Supernatants from human whole blood and cellular assays were quantified using the human Proinflammatory Panel 1 (human) kit on a Sector Imager 6000 reader (Meso Scale Discovery, Rockville, MD). IL-17a was quantified using the V-Plex Human IL-17a kit on a Sector Imager 6000 reader (Meso Scale Discovery, Rockville, MD). Supernatants from rat whole blood assay were analyzed for IL-2 levels using the rat IL-2 Duoset ELISA kit (R&D). Plasma and synovial samples harvested from the rat CIA study were quantified for proinflammatory cytokines using the rat V-PLEX Proinflammatory Panel 2 kit (MSD).

[7] = tested on: Jurkat-T cells; experiment: Jurkat IL-2 assay; settings: Jurkat-T cells (a-CD3/-CD28/-CD2); readout IL-2
Experimental: Cells were cultured in RPMI/10% FBS (Thermofisher) and maintained under a concentration of 3×10^6 cells/ml. MALT1i at different concentrations were stamped by ECHO onto 384-well plates (PerkinElmer, Waltham, MA) following which cells were plated in fresh media and incubated for 30 minutes before stimulation with soluble α-CD3/CD28/CD2 (ImmunoCult, Stemcell Technologies, Vancouver, Canada) for 24 h. Supernatants were collected as mentioned earlier and processed immediately for cytokine analysis or stored at −80° C. To assess viability of cells treated with compound, cells were lysed with CTG reagent (Promega, Madison, WI), and measured by luminometer.

[8] = tested on: Total B cells; experiment: B-cell proliferation assay (BCR/CD40L); settings: readout Proliferation
Experimental: Freshly isolated total CD19^+ B-cells (Stemcell) from Human PBMCs were labeled with 2 μM Cell Trace Violet (ThermoFisher) and incubated for 5 min on a Nutator. […] Proliferation was assessed by flow cytometry.

[9] = tested on: CD4+CD45RO+ Memory T-cells; experiment: Memory CD4+ T-cell cytokine release assay; settings: Memory T-cells (a-CD3/-CD28/-CD2)
Experimental: Memory CD4^+ T-cells were isolated from human donor PBMCs using an EasySep kit (Stemcell) and were rested overnight in complete RPMI media (Thermofisher) supplemented with 10% FBS (Atlanta Biologics), 10 mM HEPES, 2 mM GlutaMAX, 1 mM Na Pyruvate, and 1×MEM non-essential amino acids (Thermofisher).

[10] = tested on: human monocyte-derived macrophages; experiment: Monocyte-derived macrophages stimulated with depleted zymosan
Experimental: (§2) After differentiation, cells were harvested with Accutase solution (Stemcell Technologies) and incubated for 2 h at 37° C., 5% CO2 in 96-well plates.

[11] = tested on: human monocyte-derived macrophages; experiment: Monocyte-derived macrophages stimulated with IgG immune complex; settings: Macrophages (aIgG + IgG, immune-complex)
Experimental: as §2

CN(C(=O)C1CCS(=O)(=O)CC1)[C@@H](c1ccc(Nc2cnc3cccnc3c2C2CC2)cc1)C(F)(F)F [REO-538]
IC90 ([1]; example values, blood concentration target, read-out: IC90): 10.4 µM | IC90 ([1]; higher dotted line of FIG. 13B, read-out: IC90 value (estimated)): ~1 µg/mL | IC50 ([1]; lower dotted line of FIG. 13B, read-out: estimated IC50 value (converted)): ~0.376 µM | reduction in the Treg levels ([2]; 1 mg/kg dose): 1% | reduction in the Treg levels ([2]; 10 mg/kg dose): 49% | log10AUC value at ~40% reduction in Treg levels ([2]; rat CIA model): ~2.0 μg*hr/mL | qualitative Treg impact (FIG. 11) ([2]; rat CIA model): low Treg impact | IL-1beta and IL-6 in synovial fluid ([3]; 10 mg/kg and 10+3 mg/kg groups in comparison to the 3 mg/kg group): lower | KC/GRO and TNFα in synovial fluid ([3]; each of the 3 mg/kg, 10 mg/kg and 10+3 mg/kg groups in comparison to vehicle): lower levels | Treg levels [4]: reduced Treg levels in a dose dependent manner | reduction in the clinical score ([5]; 0.3 mg/kg dose, in comparison to the vehicle treatment): 26% | reduction in the clinical score ([5]; 1 mg/kg dose, in comparison to the vehicle treatment): 59% | reduction in the clinical score ([5]; 3 mg/kg dose, in comparison to the vehicle treatment): 65% | reduction in the clinical score ([5]; 10 mg/kg dose, in comparison to the vehicle treatment): 80% | reduction in the clinical score ([5]; Example 6: daily 3 mg/kg for 14 days, vs vehicle): 25% | reduction in the clinical score ([5]; Example 6: daily 10 mg/kg for 2 days followed by daily 3 mg/kg for 12 days, vs vehicle): 43% | reduction in the clinical score ([5]; Example 6: daily 10 mg/kg for 14 days, vs vehicle): 70% | log10AUC value at ~50% reduction in the clinical score ([5]; rat CIA model): ~1.2 μg*hr/mL | qualitative efficacy (FIG. 11) ([5]; rat CIA model): high efficacy

CO[C@@H](C)c1c(NC(=O)Nc2ccnc(C(F)(F)F)c2)cnc2cc(Cl)nn12 [REO-981]
Effect size (% Max. inhibition) ([6]; readout IFNg): >95% | Effect size (% Max. inhibition) ([6]; readout IL-2): >95% | Effect size (% Max. inhibition) ([6]; readout TNFa): ~85% | log10Ctrough value at ~40% reduction in Treg levels ([2]; rat, in vivo): ~3.3 ng/mL | Effect size (% Max. inhibition) [7]: >95% | Effect size (% Max. inhibition) [8]: ~60% | Effect size (% Max. inhibition) ([9]; readout IFNg): ~80% | Effect size (% Max. inhibition) ([9]; readout IL-2): >90% | Effect size (% Max. inhibition) ([9]; readout IL-17): >90% | Effect size (% Max. inhibition) ([9]; readout TNFa): ~85% | log10Ctrough value at ~50% reduction in the clinical score ([5]; rat, in vivo): ~2.6 ng/mL | Effect size (% Max. inhibition) ([10]; readout IL-6): >60% | Effect size (% Max. inhibition) ([10]; readout TNFa): >75% | Effect size (% Max. inhibition) ([11]; readout IL-6): >75% | Effect size (% Max. inhibition) ([11]; readout TNFa): ~74%
